For this experiment, the target named is T1, GIPR (CHO-K1-hGIPR cells) (Homo sapiens, UniProt P48546).
T1 construct: host or cells: CHO-K1
T1 sequence (P48546 22-466): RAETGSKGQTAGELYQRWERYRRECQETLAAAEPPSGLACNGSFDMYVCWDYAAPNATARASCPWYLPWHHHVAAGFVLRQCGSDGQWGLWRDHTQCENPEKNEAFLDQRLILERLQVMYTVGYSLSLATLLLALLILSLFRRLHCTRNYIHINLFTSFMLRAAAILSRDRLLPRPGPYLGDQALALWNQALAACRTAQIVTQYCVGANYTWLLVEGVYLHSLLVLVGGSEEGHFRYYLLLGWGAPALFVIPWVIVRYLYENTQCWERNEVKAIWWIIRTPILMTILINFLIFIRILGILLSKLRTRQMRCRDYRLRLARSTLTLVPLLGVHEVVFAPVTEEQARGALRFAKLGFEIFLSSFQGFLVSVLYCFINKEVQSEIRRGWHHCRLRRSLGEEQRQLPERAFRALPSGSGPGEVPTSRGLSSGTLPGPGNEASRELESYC
Nature of the experiment: FACS binding assay. The following applies: competition with 20 nM GIP-057, 4° C., 1 hour. The procedure: In order to determine binding of compounds according to the present invention to GIPR-expressing cells, a FACS binding assay was established.
CHO-K1-hGIPR cells (GenScript Biotech, #M00486) were cultured in Ham's F12 medium (Sigma-Aldrich, #N4888) including 10% fetal calf serum (FCS), 2 mM L-glutamine, 100 U/mL penicillin, 100 μg/mL streptomycin, 200 μg/mL Zeocin and 100 μg/mL HygromycinB. Cells were detached with Accutase (Biolegend, #BLD-423201) and washed in FACS buffer (PBS including 1% FCS). Cells were diluted in FACS buffer to a final concentration of 500.000 cells per mL. 200 μL of the cell suspension were transferred to a u-shaped non-binding 96-well plate (Greiner) and cells were washed in ice-cold FACS buffer.
Cells were washed twice in FACS buffer. An additional incubation step with 1 μg/mL APC-Streptavidin (Miltenyi; #130-106-791) in 50 μL FACS buffer for 30 min on ice was performed followed by two washes with FACS buffer.
Cells were analyzed in an Attune NxT flow cytometer. Median fluorescence intensities (MFI) of the APC/Cy5-channel were calculated by Attune NxT software. MFI values were plotted against peptide concentration and four parameter logistic (4PL) curve fitting and EC50/pEC50 or IC50/pIC50 calculations were performed using ActivityBase software.
On the technique in general: A flow cytometer gives signals particle by particle.

[1] abbreviates: read-out: pIC50 Category (converted).

Each structure is given as a SMILES string. Read-outs that look alike come from different tables or passages of the source. *1 amine or outer side, *2 acyl side, *3 side chain or, on linkers, in order; H or OH if unused. Where a SMILES comes first, the peptide text is derived from it. Bridges are numbered along the chain shown (N, C = ends). Side-chain parts run from the residue outwards. [ ]: non-standard residue; d: D form. The star is where a group is joined. NH(1-deoxy-D-glucityl) = OC[C@@H](O)[C@@H](O)[C@H](O)[C@@H](O)CN*; DOTA = O=C(O)CN1CCN(CC(=O)O)CCN(CC(=O)*)CCN(CC(=O)O)CC1; Trp(5-Br) = N[C@@H](Cc1c[nH]c2ccc(Br)cc12)C(=O)O; Trp(5-Cl) = N[C@@H](Cc1c[nH]c2ccc(Cl)cc12)C(=O)O; Pyridine(2,6-diCH2) = c1cc(C[*:1])nc(C[*:2])c1; Pro(4R-NH2) = N[C@H]1CN[C@H](C(=O)O)C1; Glutaryl = O=C(CCCC(=O)[*:2])[*:1]; X1 = O=C(CN1CCC(N[*:1])CC1)[*:2]; hSer = N[C@@H](CCO)C(=O)O; Api = NC1(C(=O)O)CCNCC1; Thp = NC1(C(=O)O)CCOCC1; AEEA = NCCOCCOCC(=O)O Where only a bound is given, the exact number is not on record here.

`CC[C@H](C)[C@@H]1NC(=O)[C@H](CC(C)C)NC(=O)C2(CCN(C(=O)CCCC(=O)NC[C@H](O)[C@@H](O)[C@H](O)[C@H](O)CO)CC2)NC(=O)[C@@H](NC(=O)[C@@H](CC(C)C)NC(=O)[C@H](CCC(=O)O)NC(=O)[C@@H]2C[C@@H](N)CN2C(=O)[C@H](Cc2c[nH]c3ccc(Cl)cc23)NC(=O)[C@H](Cc2c[nH]c3ccccc23)NC(=O)[C@H](CC(=O)O)NC(=O)COCCOCCNC(=O)[C@@H](CCC(=O)NC[C@H](O)[C@@H](O)[C@H](O)[C@H](O)CO)NC(=O)CN2CCN(CC(=O)O)CCN(CC(=O)O)CCN(CC(=O)O)CC2)CSCc2cccc(n2)CSC[C@@H](C(=O)NC2CCN(CC(=O)N[C@H](CCC(=O)NC[C@H](O)[C@@H](O)[C@H](O)[C@H](O)CO)C(N)=O)CC2)NC1=O` [GIP-009, DOTA-glu(AGLU)-O2Oc-Asp-Trp-5Clw-Tap-Glu-leu-[Cys(2Lut)-Apc(AGLU-Glutar)-Leu-Ile-Cys]-APAc-glu(AGLU)-NH2] ({DOTA}-[dE](NH(1-deoxy-D-glucityl))[AEEA]DW[Trp(5-Cl)][Pro(4R-NH2)]E[dL]C[Api]([Glutaryl-NH(1-deoxy-D-glucityl)])LIC[X1][dE](NH(1-deoxy-D-glucityl))-NH2; linker 9-13 via Pyridine(2,6-diCH2)): the IC50 under setting [1] is < 10 nM. Turning to `CC[C@H](C)[C@@H]1NC(=O)[C@H](CC(C)C)NC(=O)C2(CCN(C(=O)CCCC(=O)NC[C@H](O)[C@@H](O)[C@H](O)[C@H](O)CO)CC2)NC(=O)[C@@H](NC(=O)[C@@H](CC(C)C)NC(=O)[C@H](CCC(=O)O)NC(=O)[C@@H]2C[C@@H](N)CN2C(=O)[C@H](Cc2c[nH]c3ccc(Cl)cc23)NC(=O)[C@H](Cc2c[nH]c3ccccc23)NC(=O)[C@H](CC(=O)O)NC(=O)CN2CCC(NC(=O)CN3CCN(CC(=O)O)CCN(CC(=O)O)CCN(CC(=O)O)CC3)CC2)CSCc2cccc(n2)CSC[C@@H](C(=O)NC2CCN(CC(=O)N[C@H](CCC(=O)NC[C@H](O)[C@@H](O)[C@H](O)[C@H](O)CO)C(N)=O)CC2)NC1=O` [GIP-012, DOTA-APAc-Asp-Trp-5Clw-Hyp-Glu-leu-[Cys(2Lut)-Apc(AGLU-Glutar)-Leu-Ile-Cys]-APAc-glu(AGLU)-NH2] ({DOTA}-[X1]DW[Trp(5-Cl)][Pro(4R-NH2)]E[dL]C[Api]([Glutaryl-NH(1-deoxy-D-glucityl)])LIC[X1][dE](NH(1-deoxy-D-glucityl))-NH2; linker 8-12 via Pyridine(2,6-diCH2)), under setting [1], the IC50 is < 10 nM. On the same count and under the same terms, the same measure for `CC[C@H](C)[C@@H]1NC(=O)[C@H](CC(C)C)NC(=O)C2(CCN(C(=O)CN3CCN(CC(=O)O)CCN(CC(=O)O)CCN(CC(=O)O)CC3)CC2)NC(=O)[C@@H](NC(=O)[C@@H](CC(C)C)NC(=O)[C@H](CCC(=O)O)NC(=O)[C@@H]2C[C@@H](N)CN2C(=O)[C@H](Cc2c[nH]c3ccc(Cl)cc23)NC(=O)[C@H](Cc2c[nH]c3ccccc23)NC(=O)[C@H](CC(=O)O)NC(=O)CN2CCC(NC(=O)CCCC(=O)NC[C@H](O)[C@@H](O)[C@H](O)[C@H](O)CO)CC2)CSCc2cccc(n2)CSC[C@@H](C(=O)NC2CCN(CC(=O)N[C@H](CCC(=O)NC[C@H](O)[C@@H](O)[C@H](O)[C@H](O)CO)C(N)=O)CC2)NC1=O` [GIP-013, AGLU-Glutar-APAc-Asp-Trp-5Clw-Tap-Glu-leu-[Cys(2Lut)-Apc(DOTA)-Leu-Ile-Cys]-APAc-glu(AGLU)-NH2] ({NH(1-deoxy-D-glucityl)-Glutaryl}-[X1]DW[Trp(5-Cl)][Pro(4R-NH2)]E[dL]C[Api](DOTA)LIC[X1][dE](NH(1-deoxy-D-glucityl))-NH2; linker 8-12 via Pyridine(2,6-diCH2)): < 10 nM. Turning to `CC[C@H](C)[C@@H]1NC(=O)[C@H](CC(C)C)NC(=O)C2(CCN(C(=O)CN3CCN(CC(=O)O)CCN(CC(=O)O)CCN(CC(=O)O)CC3)CC2)NC(=O)[C@@H](NC(=O)[C@@H](CC(C)C)NC(=O)[C@H](CCC(=O)O)NC(=O)[C@@H]2C[C@@H](N)CN2C(=O)[C@H](Cc2c[nH]c3ccc(Br)cc23)NC(=O)[C@H](Cc2c[nH]c3ccccc23)NC(=O)[C@H](CC(=O)O)NC(=O)CN2CCC(NC(=O)CCCC(=O)NC[C@H](O)[C@@H](O)[C@H](O)[C@H](O)CO)CC2)CSCc2cccc(n2)CSC[C@@H](C(=O)NC2CCN(CC(=O)N[C@H](CCC(=O)NC[C@H](O)[C@@H](O)[C@H](O)[C@H](O)CO)C(N)=O)CC2)NC1=O` [GIP-014, AGLU-Glutar-APAc-Asp-Trp-5Brw-Tap-Glu-leu-[Cys(2Lut)-Apc(DOTA)-Leu-Ile-Cys]-APAc-glu(AGLU)-NH2] ({NH(1-deoxy-D-glucityl)-Glutaryl}-[X1]DW[Trp(5-Br)][Pro(4R-NH2)]E[dL]C[Api](DOTA)LIC[X1][dE](NH(1-deoxy-D-glucityl))-NH2; linker 8-12 via Pyridine(2,6-diCH2)), for the setting “pIC50 Category”, the IC50 is < 10 nM. Take `CC[C@H](C)[C@@H]1NC(=O)[C@H](CC(C)C)NC(=O)C2(CCN(C(=O)CN3CCN(CC(=O)O)CCN(CC(=O)O)CCN(CC(=O)O)CC3)CC2)NC(=O)[C@@H](NC(=O)[C@@H](CC(C)C)NC(=O)[C@H](CCC(=O)O)NC(=O)[C@@H]2C[C@@H](N)CN2C(=O)[C@H](Cc2c[nH]c3ccc(Br)cc23)NC(=O)[C@H](Cc2c[nH]c3ccccc23)NC(=O)[C@H](CC(=O)O)NC(=O)CCCC(=O)NC[C@H](O)[C@@H](O)[C@H](O)[C@H](O)CO)CSCc2cccc(n2)CSC[C@@H](C(=O)NC2CCN(CC(=O)N[C@H](CCC(=O)NC[C@H](O)[C@@H](O)[C@H](O)[C@H](O)CO)C(N)=O)CC2)NC1=O` [GIP-015, AGLU-Glutar-Asp-Trp-5Brw-Tap-Glu-leu-[Cys(2Lut)-Apc(DOTA)-Leu-Ile-Cys]-APAc-glu(AGLU)-NH2] ({NH(1-deoxy-D-glucityl)-Glutaryl}-DW[Trp(5-Br)][Pro(4R-NH2)]E[dL]C[Api](DOTA)LIC[X1][dE](NH(1-deoxy-D-glucityl))-NH2; linker 7-11 via Pyridine(2,6-diCH2)): the IC50 under setting [1] is < 10 nM. On the same count and under the same terms, the same measure for `CC[C@H](C)[C@@H]1NC(=O)[C@H](CC(C)C)NC(=O)C2(CCN(C(=O)CN3CCN(CC(=O)O)CCN(CC(=O)O)CCN(CC(=O)O)CC3)CC2)NC(=O)[C@@H](NC(=O)[C@@H](CC(C)C)NC(=O)[C@H](CCC(=O)O)NC(=O)[C@@H]2C[C@@H](N)CN2C(=O)[C@H](Cc2c[nH]c3ccc(Br)cc23)NC(=O)[C@H](Cc2c[nH]c3ccccc23)NC(=O)[C@H](CCO)NC(=O)CCCC(=O)NC[C@H](O)[C@@H](O)[C@H](O)[C@H](O)CO)CSCc2cccc(n2)CSC[C@@H](C(=O)NC2CCN(CC(=O)N[C@H](CCC(=O)NC[C@H](O)[C@@H](O)[C@H](O)[C@H](O)CO)C(N)=O)CC2)NC1=O` [GIP-016, AGLU-Glutar-Hse-Trp-5Brw-Tap-Glu-leu-[Cys(2Lut)-Apc(DOTA)-Leu-Ile-Cys]-APAc-glu(AGLU)-NH2] ({NH(1-deoxy-D-glucityl)-Glutaryl}-[hSer]W[Trp(5-Br)][Pro(4R-NH2)]E[dL]C[Api](DOTA)LIC[X1][dE](NH(1-deoxy-D-glucityl))-NH2; linker 7-11 via Pyridine(2,6-diCH2)): < 10 nM; for `CC[C@H](C)[C@@H]1NC(=O)[C@H](CC(C)C)NC(=O)C2(CCOCC2)NC(=O)[C@@H](NC(=O)[C@@H](CC(C)C)NC(=O)[C@H](CCC(=O)O)NC(=O)[C@@H]2C[C@@H](N)CN2C(=O)[C@H](Cc2c[nH]c3ccc(Cl)cc23)NC(=O)[C@H](Cc2c[nH]c3ccccc23)NC(=O)[C@H](CC(=O)O)NC(=O)[C@@H](CCC(=O)NC[C@H](O)[C@@H](O)[C@H](O)[C@H](O)CO)NC(=O)COCCOCCNC(=O)CN2CCN(CC(=O)O)CCN(CC(=O)O)CCN(CC(=O)O)CC2)CSCc2cccc(n2)CSC[C@@H](C(=O)NC2CCN(CC(=O)N[C@H](CCC(=O)NC[C@H](O)[C@@H](O)[C@H](O)[C@H](O)CO)C(N)=O)CC2)NC1=O` [GIP-018, DOTA-O2Oc-glu(AGLU)-Asp-Trp-5Clw-Tap-Glu-leu-[Cys(2Lut)-Thp-Leu-Ile-Cys]-APAc-glu(AGLU)-NH2] ({DOTA-AEEA}-[dE](NH(1-deoxy-D-glucityl))DW[Trp(5-Cl)][Pro(4R-NH2)]E[dL]C[Thp]LIC[X1][dE](NH(1-deoxy-D-glucityl))-NH2; linker 8-12 via Pyridine(2,6-diCH2)): < 10 nM.

The record behind these values is patent US20250296971A1, “GASTRIC INHIBITORY PEPTIDE RECEPTOR LIGANDS” (priority 2021, published 2025).
